# Assay results: patent publication US20210278393A1, “METHOD FOR MEASURING SINGLE-CELL BIOMASS TO PREDICT CLINICAL OUTCOMES FOR STEM CELL TRANSPLANT PATIENTS” (VIRGINIA COMMONWEALTH UNIVERSITY, priority 2016, published 2021)
# Legend:
# [1] = at recommended clinical dose, clinical trials; cited from earlier work
# M249R4 cells = assay: HSLCI kinase inhibitor screen in Vemurafenib-resistant melanoma; assay type: cell-based, human
# Protocol: (§1) Kinase inhibitor screen. 1× Dose Determination: For each inhibitor, a 1× dose was calculated. Briefly, recommended clinical doses were obtained from published package inserts. Doses were matched to peak serum concentrations (Cmax (ng/mL)) for each inhibitor as measured in clinical trials in which the recommended doses were utilized. Using each drugs' molecular weight, peak serum concentration values were converted to uM units and designated as 1×. […] Cobimetinib and Binimetinib were supplied as dry powders and suspended in DMSO to a final stock concentration of 10 mM upon receipt. Cell Preparation and Dosing: M249R4 cells were plated in a 24-well optical glass-bottomed plate (Cat. #P24-0-N, Cellvis) at 1×10^4 cells/ml (total of 1 mL in each of 24 wells) in media (DMEM, 10% Fetal Bovine Serum, 2 mM L-Glutamine) containing 1 uM Vemurafenib. Plated cells were allowed to adhere overnight at 37° C., 5% CO2. All cells were washed with 1× phosphate-buffered saline, pH 7.4, and provided with fresh media. Immediately following washing and feeding, cells were dosed with inhibitors at dose-escalating concentrations and incubated under standard cell culture conditions for 24 hours. After incubation, cells were imaged for 10 hours using the HSLCI system.
# (§2) These inhibitors target a spectrum of kinases (Table 2). […] For each targeted kinase inhibitor, a 1× dose was calculated to match the peak tolerated serum concentration (Cmax (ng/mL)), as measured in clinical trials. Our first assay screened all seven inhibitors at several concentrations to identify those that elicited the most apparent reduction in cell growth rates.
# [2] = Peak serum concentration (Cmax) in clinical trials at recommended clinical dose; assay type: in vivo, human; settings: 1× dose for the screen
# Protocol: as §1, §2
# [3] = system: all three parental lines (M229P, M238P, M249P); assay: HSLCI population kinetic response (biomass growth rate); assay type: cell-based, human; settings: 5 μM Vemurafenib
# Excerpt: Live Cell Interferometry. The standard and high speed LCI platforms were based on a custom built inverted microscope, coupled to a quantitative phase detecting camera (SID4BIO, Phasics) which consists of a modified Shack-Hartman mask, fitted to a 1600×1200 pixel CCD camera [Imprex B1621]). The phase calculation down samples the raw image to 400×300 pixels, resulting in effective pixel sizes between 1.3 μm and 2.5 μm, depending on the objective. […] In both the standard and high speed systems, position was determined by maximizing contrast during a vertical scan though focus. […]
# Image analysis. Raw interferograms were converted to phase images using the manufacturer's software and analyzed with our custom MATLAB script (The MathWorks). […] Using the resulting flattened phase images, single cells segmented from the background using Canny spatial-derivative edge detection algorithms, their locations, and optical volumes were recorded. […] Single cell growth tracks were quality filtered using an upper cutoff of +1-15% uncertainty (s.d. of residuals) in the calculated growth rate, as determined by linear fitting the biomass versus time data. […]
# [4] = second assay, up to 10× concentration
SMILES,"Serum Conc. (ng/mL) (peak serum concentration, Cmax) [1]",dose response (M249R4 cells; first assay),uM (1×) (peak serum concentration converted using molecular weight) [2] [µM],"dose response (M249R4 cells; second assay, dosing range 0.05×-1×)","growth rate response (M249R4 cells; first assay, 0.1×)","growth rate response (M249R4 cells; second assay, doses greater than 0.1×)",cell killing (M249R4 cells; [4]),dose response (M249R4 cells; [4]),time by which significant growth rate reduction occurred [3] [h]
Cn1cnc2c(F)c(Nc3ccc(Br)cc3F)c(C(=O)NOCCO)cc21 [Binimetinib],257.0,slight dose response,0.58,,,,,,
O=C(c1ccc(F)c(F)c1Nc1ccc(I)cc1F)N1CC(O)([C@@H]2CCCCN2)C1 [Cobimetinib],273,,0.51,robust dose responses,,,,,
CC(C)(C)c1nc(-c2cccc(NS(=O)(=O)c3c(F)cccc3F)c2F)c(-c2ccnc(N)n2)s1 [Dabrafenib],1050,,2.02,,slight reduction in growth rate,reduced growth rates,nor does it kill cells,does not elicit a dose response,
Cn1cnc2c(F)c(Nc3ccc(Br)cc3Cl)c(C(=O)NOCCO)cc21 [Selumetinib],1165,,2.55,,,,,,
CC(=O)Nc1cccc(-n2c(=O)n(C3CC3)c(=O)c3c(Nc4ccc(I)cc4F)n(C)c(=O)c(C)c32)c1 [Trametinib],22.2,,0.04,,,,,,
CCCS(=O)(=O)Nc1ccc(F)c(C(=O)c2c[nH]c3ncc(-c4ccc(Cl)cc4)cc23)c1F [Vemurafenib],4800,,9.80,,,,,,≤ 20
